Results: US11274078B2, “Drug for treating tumor diseases and having antibacterial antivirus anti-inflammatory effects” (priority 2017, dated 2022)

Legend:
Type in all cases: cell-based
[1] = tested on: HCT-116 tumor cells; test: Cell proliferation inhibition assay (MTT), HCT-116; conditions: HCT-116 cells, 48 hours
Description: (§1) Case Study I: Antitumor Cell Activity of Naphthalene Diamides • Compounds of Tables 1 and 2 were synthesized in multiple steps according to the procedure of Examples 1-3 using relevant antitumor cell activity assays. The compound synthesized above was tested for IC50 concentration (MIC) against HCT-116, MCF-7, Calu-6 and A549 tumor cells by in vitro cellular activity.
(§2) Case Study II: Cell Proliferation Inhibition Assay • Based on MTT method, briefly plating HCT-116, MCF-7 and A549 cells in a concentration of 2×10^4/ml with complete culture medium in 96-well plates overnight. The volume for each well was 100 μL. Cells were treated with compounds in concentrations of 40, 20, 10, 5, 2.5, 1.25 μmol/L, and cultured at 37° C., 5% CO2 for 48 hours, followed by adding 20 μL of 5 mg/ml MTT reagent per well and continuing to culture for 2˜4 h, respectively. As a control, DMSO solvent was added in an equal volume with concentration of 0.1%. Each sample was tested as 5 replicate wells. Then the supernatant was discarded, and DMSO was added in a volume of 150 μL, followed by shaking and mixing for 15 mins. The absorbance (A) value (A value is proportional to the number of living cells) is measured by a microplate reader at the wavelength of 570 nm, and the average value is taken. The relative cell proliferation inhibition rate (%)=(control group A570—experimental group A570)/control group A570×100%. The concentration of 50% inhibition rate (IC50) of the compound was calculated by the repetition of at least 3 times. The positive control was used as 5-flucrouracil.

[2] = tested on: MCF-7 tumor cells; test: Cell proliferation inhibition assay (MTT), MCF-7; conditions: MCF-7 cells, 48 hours
Description: as §1, §2

[3] = tested on: A549 tumor cells; test: Cell proliferation inhibition assay (MTT), A549; conditions: 48 hours
Description: as §1, §2

[4] = tested on: Calu-6 tumor cells; test: In vitro antitumor cell activity, Calu-6; conditions: Calu-6 cells
Description: as §1, §2

SMILES	IC50 [1] [µM]	IC50 [2] [µM]	IC50 [3] [µM]	IC50 [4] [µM]
O=C(Nc1ccc2cc(C(=O)Nc3nccs3)ccc2c1)c1ccc(F)cc1 [ABC-02]	10	–	–	–
Cc1cccc(C(=O)Nc2ccc3cc(C(=O)N4CCN(C)CC4)ccc3c2)c1 [ABC-05]	10	–	–	–
O=C(NCc1ccc(Cl)nc1)c1ccc2cc(NC(=O)c3ccc(F)cc3)ccc2c1 [ABC-07]	5.8	7.6	–	–
Cc1cccc(C(=O)Nc2ccc3cc(C(=O)NCc4ccc(Cl)nc4)ccc3c2)c1 [ABC-09]	3.5	3.2	–	–
O=C(Nc1ccc2cc(C(=O)N3CCOCC3)ccc2c1)c1ccc(F)cc1 [ABC-11]	5.5	3.7	28.1	–
COc1ccc(OC)c(C(=O)Nc2ccc3cc(C(=O)NCc4ccc(Cl)nc4)ccc3c2)c1 [ABC-15]	6.6	3.5	–	–
O=C(NCc1ccc(Cl)nc1)c1ccc2cc(NC(=O)c3cccc(C(F)(F)F)c3)ccc2c1 [ABC-17]	3.6	3.2	–	–
CN1CCN(C(=O)c2ccc3cc(NC(=O)c4cccc(C(F)(F)F)c4)ccc3c2)CC1 [ABC-20]	24.9	2.7	–	–
O=C(Nc1ccc2cc(C(=O)NC3CC3)ccc2c1)c1ccc(F)cc1 [ABC-21]	–	–	48.5	48.5
O=C(Nc1ccc2cc(C(=O)NC3CCCCC3)ccc2c1)c1cccc(C(F)(F)F)c1 [ABC-24]	5	–	–	–
O=C(Nc1ccc2cc(C(=O)Nc3cccc(C(F)(F)F)c3)ccc2c1)c1cccc(C(F)(F)F)c1 [ABC-26]	3.5	–	–	–
COc1ccc(C(=O)Nc2ccc3cc(C(=O)NC4CC4)ccc3c2)cc1 [ABC-27]	38.8	2.65	–	–
O=C(Nc1ccc2cc(C(=O)NC3CC3)ccc2c1)c1cccc(C(F)(F)F)c1 [ABC-28]	5	–	–	–
COc1ccc(C(=O)Nc2ccc3cc(C(=O)NC(C)C)ccc3c2)cc1 [ABC-29]	8	–	–	–
COc1ccc(C(=O)Nc2ccc3cc(C(=O)Nc4nccs4)ccc3c2)cc1 [ABC-31]	–	3.9	–	–
Cc1cccc(C(=O)Nc2ccc3cc(C(=O)Nc4nccs4)ccc3c2)c1 [ABC-32]	5.5	2.9	14.2	28.1
COc1ccc(C(=O)Nc2ccc3cc(C(=O)Nc4cccc(C(F)(F)F)c4)ccc3c2)cc1 [ABC-33]	3	6.6	–	–
O=C(Nc1ccc2cc(C(=O)Nc3nccs3)ccc2c1)c1cccc(C(F)(F)F)c1 [ABC-34]	5.2	1.6	–	–
COc1ccccc1C(=O)Nc1ccc2cc(C(=O)NC(C)C)ccc2c1 [ABC-38]	5	9	–	–
O=C(Nc1ccc2cc(C(=O)N3CCOCC3)ccc2c1)c1ccc(Cl)c(Cl)c1 [ABC-40]	–	–	–	12.4
CN1CCN(C(=O)c2ccc3cc(NC(=O)c4ccc(Cl)c(Cl)c4)ccc3c2)CC1 [ABC-42]	20	–	3.7	7.1
O=C(Nc1ccc2cc(C(=O)NC3CC3)ccc2c1)c1cccc(Cl)c1 [ABC-43]	–	–	25.2	25.3
O=C(Nc1ccc2cc(C(=O)NC3CC3)ccc2c1)c1ccc(Cl)c(Cl)c1 [ABC-44]	–	–	–	5.5
O=C(Nc1ccc2cc(C(=O)Nc3nccs3)ccc2c1)c1cccc(Cl)c1 [ABC-45]	10	6.7	4.3	12.6
O=C(Nc1ccc2cc(C(=O)Nc3nccs3)ccc2c1)c1ccc(Cl)c(Cl)c1 [ABC-46]	2	6.2	1.6	–
CC(C)NC(=O)c1ccc2cc(NC(=O)c3cccc(Cl)c3)ccc2c1 [ABC-47]	2.5	–	12.4	–
CC(C)NC(=O)c1ccc2cc(NC(=O)c3ccc(Cl)c(Cl)c3)ccc2c1 [ABC-48]	3.9	–	12.6	–
